The text below walks through data of patent publication US9433663B2, “Mobilization of hematopoietic stem cells” (Children's Hospital Medical Center, priority 2008, dated 2016).

Structures are written as SMILES.

One data set deals with donor cell engraftment. Put plainly: Example 9 mobilization as preparative regimen for HSC transplantation. Type of data set: in vivo, mice. The method, then:
If the microenvironmental niches are vacated after CASIN exposure, donor HSCs might engraft better in hosts treated with a mobilizing agent such as CASIN compared with non-mobilized controls. To test this, bone marrow transplantation is performed on recipient mice which are pre-conditioned with CASIN. […] Additionally, AMD3100, G-CSF, and control medium are used in parallel with CASIN as controls.
Briefly, mice are treated with CASIN, and 4×10^7 donor bone marrow cells from congenic mouse strain are transplanted 48 h later. Donor cell engraftment is assayed at 3 months using the congenic markers by flow cytometry.
Additionally, multiple cycles of mobilization with CASIN may increase the number of available niches. Therefore, this study investigates whether repeated cycles of CASIN mobilization, each followed by donor cell transplantation, could result in increased engraftment. Briefly, mice receive one weekly injection of CASIN on 3 consecutive weeks and 4×10^7 donor marrow cells are transplanted 48 hours after each mobilization. Control animals also received 3 weekly infusions of 4×10^7 donor marrow cells but no CASIN. And the donor engraftment is assayed at 3 months after transplantation as well.

The target in another data set is Rho (Homo sapiens, UniProt P61586). Put plainly: nucleotide exchange: Large-induced exchange of mant-GDP with Rho. Type of data set: biochemical. From the text: For example, even at 10 times the IC50 of Cdc42, a 50% inhibition of the association of mant-GDP with Rac or Rho was not achieved.
In data set [1] the test system is leukemia initiating cells (LICs). It is filed as in vivo. From the text:
Like normal HSCs, their malignant counterpart, leukemia initiating cells (LICs) reside in their BM niches that provide the structural and physiological conditions supporting their survival and growth. LICs are resistant to traditional chemotherapy by interacting with their BM microenvironment, which are the culprits of leukemia relapses after a period of remission induced by chemotherapy. Detachment of LICs from their niche by CASIN would be a valuable supplementary therapy to the traditional cancer therapies (e.g., chemotherapies). First of all, in vitro effects of CASIN were examined in adhesion, migration, and F-actin polymerization of LICs, each of which is independently important for the retention of LICs in BM niches. Retroviral transduction of an MLL-AF9 fusion cDNA together with N-Ras oncogene into normal human CD34^+cord blood cells led to the establishment of cultures of N-Ras-MA93 cells that can initiate acute myeloid leukemia in NOG mice. […] To address it, a human AML model was set up by transplanting N-RasMA93 cells into NOG mice intravenously.
C57BL/6, NOD/SCID, NOD/SCID-SGM3 and NOD/SCIDγC−/− (NOG) were in house bred in the animal barrier facility of Cincinnati Children's Hospital Medical Center (CCHMC) and used at the age of 6-8 weeks old. Cultured N-RasMA93 cells were injected into NOD/SCIDγC−/− mice by tail vein. […]

The subject of another data set is PAK1, WASP, WAVE, ROCK. Put plainly: Example 7 phosphorylation of downstream effectors by western blot. It is filed as cell-based, murine LDBM and human HCB cells. Conditions: HCB and LDBM cells. As to the method: To exclude the inhibitory effect of CASIN on other Rac isoforms, Rho GTPases, and Ras, broader effector pull-down experiments are performed on these possible candidates with gradient doses of CASIN in LDBM and HCB cells as previously described. In addition, CASIN has been indicated as a noncovalent and reversible inhibitor in Xenopus egg extract. To confirm it, reversibility is monitored in this set of effector pull-down experiments. Four treatment groups are divided for both LDBM and HCB cells: (1) Serum starvation 20 h; (2) Serum starvation 20 h+growth factors stimulation; (3) Serum starvation 20 h+CASIN treatment (doses: 1, 2.5, 5, and 10 μM) 3 h+growth factor stimulation; (4) Serum starvation 20 h+CASIN treatment (doses: 1, 2.5, 5, and 10 μM) 3 h+wash the cells, and culture for another 3 h for recovery+growth factors stimulation. […] Bound proteins are analyzed by immunoblotting with respective antibodies (BD Biosciences). Furthermore, changes of downstream targets of Cdc42, Rac, and Rho under the four treatment groups are assessed. Phosphorylation status of PAK1, WASP (effectors of Cdc42), WAVE (effector of Rac), and ROCK (effector of Rho) are monitored by western blots using respective antibodies.

Another data set concerns the target Cdc42 (Mus musculus, UniProt P60766). Put plainly: Cdc42 activity (effector pulldown) in primary murine fibroblasts. The note with it: Cdc42GAP^−/− primary murine fibroblasts. On the set-up: endogenous in cells; host or cells: murine low density bone marrow (LDBM) cells. Type of data set: cell-based. The text has this: To investigate the Cdc42-dependent cytoskeleton rearrangement, Swiss 3T3 fibroblasts were used since it was abundantly elaborated in Swiss 3T3 fibroblats that bradykinin induces actin filopodia formation through activating Cdc42, whereas PDGF activates Rac1 and induces Rac-mediated membrane lamellipoidia, and LPA responsible for RhoA activation, eliciting RhoA-medicated formation of actin stress fibers and focal adhesion assembly (Ridley, A. J. et al. Cell 70, 401-410 (1992); Ridley, A. J. et al. Cell 70, 389-399 (1992); Kozma, R. et al. Mol Cell Biol 15, 1942-1952 (1995)).
To analyze the effects of CASIN on the formation of active GTP-bound Cdc42, RhoA, and Rac1, effector pulldown assays were carried out as described previously. Cdc42GAP^−/− MEF, LDBM, CD34^+ hCB cells were treated with CASIN at doses of 5-20 μM in parallel with vehicle control for 2 hrs after overnight starvation, and stimulated with cytokines subsequently. And then cells were lysed in a buffer containing 20 mM Tris-HCL (pH 7.6), 100 mM NaCl, 1% Triton X-100, 10 mM MgCl2, 2 mM NaF, and Protease inhibitor cocktail (Roche Diagnostics). Lysates were incubated with GST-P21-binding domain of PAK1 for RAC1-GTP and Cdc42-GTP, and GST-RBD domain of Rhotekin for RhoA-GTP respectively. […]

The next data set deals with T1, Rac1 (Mus musculus, UniProt P63001).
T1 construct: endogenous in cells; host or cells: murine LDBM cells
Put plainly: Rho GTPase effector pull-down in murine LDBM cells, Rac1. It is filed as cell-based. The note with it: parallel pull-down assay. As to the method: To analyze the effects of CASIN on the formation of active GTP-bound Cdc42, RhoA, and Rac1, effector pulldown assays were carried out as described previously. Cdc42GAP^−/− MEF, LDBM, CD34^+ hCB cells were treated with CASIN at doses of 5-20 μM in parallel with vehicle control for 2 hrs after overnight starvation, and stimulated with cytokines subsequently. And then cells were lysed in a buffer containing 20 mM Tris-HCL (pH 7.6), 100 mM NaCl, 1% Triton X-100, 10 mM MgCl2, 2 mM NaF, and Protease inhibitor cocktail (Roche Diagnostics). Lysates were incubated with GST-P21-binding domain of PAK1 for RAC1-GTP and Cdc42-GTP, and GST-RBD domain of Rhotekin for RhoA-GTP respectively. Both bound- and unbound-form of Rho GTPases were probed by immunoblotting with antibodies specific for Rac1 (BD biosciences), Cdc42 (BD biosciences), and RhoA (cell signaling).

Sequence of Rho (P61586 whole entry): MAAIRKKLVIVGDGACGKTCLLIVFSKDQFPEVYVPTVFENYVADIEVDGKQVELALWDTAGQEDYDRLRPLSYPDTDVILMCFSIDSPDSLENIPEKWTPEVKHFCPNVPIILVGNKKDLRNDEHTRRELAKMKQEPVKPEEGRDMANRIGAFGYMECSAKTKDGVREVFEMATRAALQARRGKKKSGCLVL
Sequence of Cdc42 (P60766 whole entry): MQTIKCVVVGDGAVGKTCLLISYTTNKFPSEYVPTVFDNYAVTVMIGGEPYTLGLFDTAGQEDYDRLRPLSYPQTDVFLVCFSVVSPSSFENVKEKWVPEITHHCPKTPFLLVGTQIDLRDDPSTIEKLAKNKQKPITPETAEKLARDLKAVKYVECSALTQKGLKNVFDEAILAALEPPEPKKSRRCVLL

In the case of `OCCNC1CCCc2c1[nH]c1ccc(-c3ccccc3)cc21` (stereo not shown) [CASIN], the “engraftment with 3-cycle administration and subsequent transplantation” value in the data set on donor cell engraftment (3 weekly cycles) is recorded as “further improved compared to one cycle”. Further, the “engraftment of donor cells in pre-conditioned recipients” value with donor cell engraftment (compared to the non-mobilization control) is “significantly increased engraftment of donor cells”. Further, the “Large induced nucleotide exchange of mant-GDP with Rho” value on Rho (FIG. 6) is “did not affect”. Also, on Rho (at 10 times the IC50 of Cdc42), the “inhibition of the association of mant-GDP with Rho” value is listed as less than 50%. Further, in data set [1] (in vivo), the “apoptosis or cell death of leukemia cells in vivo” value is on record as “did not elicit significant apoptosis or cell death”. For the same compound, the “mobilization of LICs to the peripheral blood” value in data set [1] (intravenous, by 20 min post injection) is listed as “efficiently mobilized the LICs to the peripheral blood transiently”. In the data set with PAK1, WASP, WAVE, ROCK, the “phosphorylation of PAK1 and WASP” value is “inhibit”; the “phosphorylation of WAVE and ROCK” value was “without affecting”. Further, the Cdc42 activity entry at Cdc42 is given as “dose-dependently inhibited”. For the same compound, the Rac1 activity entry at Rac1 is recorded as “no effects”.
